Molecular target: T1, Vanilloid receptor (Rattus norvegicus, UniProt Q9ERZ8+Q9WUD2+O35433)
Test: Antagonistic activity against vanilloid receptor as concentration to reduce the response to […] by 50% from neonatal rat culture spinal sensory neurons using [Ca2+] -influx assay
Format: functional

Point of comparison: `COc1ccc(CCN(CCCc2ccc(O)c(OC)c2)/C(S)=N/CCc2ccccc2)cc1`, IC50 0.72 nM. Against it:
- COc1cc(CCCN(CCc2ccccc2)/C(S)=N/CCc2ccc(F)cc2)ccc1O — 7.1-fold higher, 5.1 nM
- COc1cc(CCCN(CCc2ccccc2)/C(S)=N/CCc2ccc(Cl)cc2)ccc1O — 3.3-fold higher, 2.4 nM
- COc1cc(CCCN(CCc2ccc(C)cc2)/C(S)=N/CCc2ccccc2)ccc1O — within 1.5-fold, 0.95 nM
- COc1cc(CCCN(Cc2ccccc2)/C(S)=N/CCc2ccccc2)ccc1O — within 1.5-fold, 0.95 nM
- COc1cc(CCCN(/C(S)=N/CCc2ccccc2)C(C)C)ccc1O — 3.5-fold higher, 2.5 nM
- CCCCN(CCCc1ccc(O)c(OC)c1)/C(S)=N/CCc1ccccc1 — 14-fold higher, 10 nM
- COc1cc(CCCN(CCCc2ccccc2)/C(S)=N/CCc2ccccc2)ccc1O — 4.4-fold higher, 3.2 nM
- COc1cc(CCCN(CCc2ccccc2)/C(S)=N/CCc2ccccc2)ccc1O — 2.2-fold lower, 0.32 nM
- COc1cc(CCCN(CCc2ccc([N+](=O)[O-])cc2)/C(S)=N/CCc2ccccc2)ccc1O — within 1.5-fold, 0.5 nM
- Oc1cc2c(cc1O)CN(C(=S)NCCc1ccc(Cl)cc1)CCC2 [CAPSAZEPINE] — far higher, 650000 nM
- COc1cc(CCCN(/C(S)=N/CCc2ccccc2)C(c2ccccc2)c2ccccc2)ccc1O — 1.6-fold lower, 0.46 nM
- CC(C)N(CCCc1ccc(O)c(O)c1)/C(S)=N/CCc1ccccc1 — 13-fold higher, 9.3 nM
- COc1cc(CCCCN(CCc2ccccc2)/C(S)=N/CCc2ccccc2)ccc1O — 8.5-fold higher, 6.1 nM
- COc1ccc(CCCN(/C(S)=N/CCc2ccccc2)C(C)C)cc1OC — 15-fold higher, 10.5 nM
- CCCN(CCCc1ccc(O)c(OC)c1)/C(S)=N/CCc1ccccc1 — 17-fold higher, 12 nM
- COc1cc(CCCN(/C(S)=N/CCc2ccccc2)C2CCCCC2)ccc1O — 4.2-fold higher, 3 nM
- COc1cc(CCCN(CCc2ccc(F)cc2)/C(S)=N/CCc2ccccc2)ccc1O — 1.7-fold higher, 1.2 nM
- COc1cc(CCCN(CCc2ccc(Cl)cc2)/C(S)=N/CCc2ccccc2)ccc1O — within 1.5-fold, 0.55 nM

`CCN(CCCc1ccc(O)c(OC)c1)/C(S)=N/CCc1ccccc1` showed an IC50 greater than 30 nM.
`CC(C)N(CCCc1ccc(O)cc1)/C(S)=N/CCc1ccccc1` gave an IC50 greater than 30 nM.
`CCCCCCCCN(CCCc1ccc(O)c(OC)c1)/C(S)=N/CCc1ccccc1` showed an IC50 greater than 30 nM.

Molecular target: T1, Vanilloid receptor
Test: Agonistic activity towards vanilloid receptor, [Ca2+] influx in neonatal rat spinal sensory neuronal culture
Format: functional

Point of comparison: `COc1cc(CCC2CCCN2/C(S)=N/CCc2ccccc2)ccc1O` (stereo not given), EC50 3000 nM. Against it:
- COc1cc(CCCN(C)/C(S)=N/CCc2ccccc2)ccc1O — higher, > 30000 nM
- COc1cc(CCC/N=C(\S)NCCc2ccccc2)ccc1O — higher, > 30000 nM

Source: ChEMBL document CHEMBL1136576, “Synthesis of N,N',N"-trisubstituted thiourea derivatives and their antagonist effect on the vanilloid receptor” (Bioorg Med Chem Lett, 2003)
